Each compound was assayed on COS-1 cells (assay: Cell transfection, β-galactosidase reporter gene activity). Settings: pCMV β-gal plasmid 0.15 μg, lipid:DNA charge ratios 0.1:1 to 9:1, compared with DMRIE, FIG. 1.
Assay type: cell-based
Protocol: Similar examples of plasmid include PGL-2 and PGL-3 of Promega and others.
Cell Transfection. COS-1 cells were seeded at a density of 15,000 cells/well in a 96-well plate eighteen hours before the transfection. 0.15 μg of plasmid DNA was complexed with varying amount of lipid (0.05-4.3 nmoles) in 13 μl of plain DMEM medium for 30 min. The charge ratios were varied from 0.1:1 to 9:1 (+/−) over this range of the lipid. The complex was diluted to 100 μl with plain DMEM and added to the wells. After 3 h of incubation, 100 μl of DMEM with 10% FCS was added to the cells. The medium was changed to 10% complete medium after 24 h and the reporter gene activity was estimated after 48 h. The cells were washed twice with PBS and lysed in 50 μl of lysis buffer (0.25 M Tris.HCl, pH 8.0 and 0.5% NP40). Care was taken to ensure complete lysis. The β-galactosidase activity per well was estimated by adding 50 μl of 2× substrate solution (1.33 mg/ml of ONPG, 0.2 M sodium phosphate, pH 7.15 and 2 mM magnesium chloride) to the lysate in a 96-well plate. Absorption at 405 nm was converted to β-galactosidase units by using calibration curve constructed with pure commercial β-galactosidase enzyme. The values of β-galactosidase units in replicate plates assayed on the same day varied by less than 30%. […]

Row | Structure (SMILES) | in vitro transfection efficiency
1 | CCCCCCCCCCCCCC[N+]1(CCCCCCCCCCCCCC)CC(O)C(O)C1 (stereo not drawn) [lipid 2, N,N-di-n-tetradecyl-3,4-dihydroxy pyrrolidinium chloride] | comparable to or better than that of DMRIE

These compounds were tested on EtBr:pCMV β-gal complex (DNA) (assay: Lipid:DNA interactions assay (ethidium bromide exclusion fluorescence)). Settings: titration of EtBr:DNA complex with lipid, TE buffer pH 8.0, FIG. 2.
Assay type: binding
Source text: Lipid:DNA Interactions Assay. Intercalation-induced fluorescence increase and competition with cationic lipids to bind to DNA has made Ethidium Bromide (EtBr) an excellent tool to study cationic lipid-DNA interactions. To assess the representative lipid:DNA interactions for the cationic lipids of the present invention, we have titrated the EtBr:pCMV β-gal complex with increasing amounts of cationic lipids 1-5.
The extent of Et.Br binding to the DNA was monitored by the changes in the fluorescence. EtBr fluorescence was monitored in Hitachi 4500 fluorimeter by setting the excitation wavelength at 518 nm and emission wavelength at 585 nm. To one ml of TE buffer (pH 8.0), 0.78 nmoles of DNA and 2.5 nmoles of EtBr were added. The change in fluorescence was monitored after adding small volumes of lipids 1-5 to the EtBr:DNA complex. Arbitrary fluorescence values were recorded after allowing sufficient time for equilibration. […] Percent fluorescence was calculated considering the fluorescence value in the absence of lipid as 100.

Row | Structure (SMILES) | lipid:DNA interaction (ability to exclude ethidium bromide from DNA)
2 | CCCCCCCCCCCC[N+]1(CCCCCCCCCCCC)CC(O)C(O)C1 (stereo not drawn) [lipid 1, N,N-di-n-dodecyl-3,4-dihydroxy pyrrolidinium chloride] | interact poorly with DNA
3 | CCCCCCCCCCCCCC[N+]1(CCCCCCCCCCCCCC)CC(O)C(O)C1 (stereo not drawn) [lipid 2, N,N-di-n-tetradecyl-3,4-dihydroxy pyrrolidinium chloride] | interact with DNA equally well up to lipid:DNA ratio of 1.25 or so
4 | CCCCCCCCCCCCCCCC[N+]1(CCCCCCCCCCCCCCCC)CC(O)C(O)C1 (stereo not drawn) [lipid 3, N,N-di-n-hexadecyl-3,4-dihydroxy pyrrolidinium chloride] | interact with DNA equally well up to lipid:DNA ratio of 1.25 or so
5 | CCCCCCCCCCCCCCCCCC[N+]1(CCCCCCCCCCCCCCCCCC)CC(O)C(O)C1 (stereo not drawn) [lipid 4, N,N-di-n-octadecyl-3,4-dihydroxy pyrrolidinium chloride] | interact poorly with DNA
6 | CCCCCCCC/C=C\CCCCCCCC[N+]1(CCCCCCCCCCCCCCCCCC)CC(O)C(O)C1 (stereo not drawn) [lipid 5, N-n-octadecyl-N-oleyl-3,4 dihydroxy pyrrolidinium chloride] | interact poorly with DNA

— patent publication US7297712B2, “Cationic amphiphiles for intracellular delivery of therapeutic molecules and its composition, process and method of treatment” (Council of Scientific and Industrial Research, priority 2002, dated 2007)
